Measured values: patent US9403850B2, “Beta-lactamase inhibitors” (priority 2013, dated 2016)

Tests used:
[1] = test system: E. cloacae 144200 expressing Class C P99 AmpC; assay: Broth microdilution MIC assay, partner ceftazidime;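 further: ceftazidime held fixed at 4 µg/mL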; type: cell-based; settings: Enterobacter cloacae, read-out: MIC of Exemplary Compounds in presence of fixed β-lactams, Fixed CAZ, E. cl. 144200 p99 AmpC
[2] = test system: K. pneumoniae 156319 expressing KPC-3; assay: Broth microdilution MIC assay, partner meropenem; type: cell-based; settings: Klebsiella pneumoniae, read-out: MIC of Exemplary Compounds in presence of fixed β-lactams, Fixed Mero, K.P. 156319 KPC-3
[3] = test system: P. aeruginosa Ps296 expressing VIM-2; assay: Broth microdilution MIC assay, partner meropenem; type: cell-based; settings: Pseudomonas aeruginosa, read-out: MIC of Exemplary Compounds in presence of fixed β-lactams, Fixed Mero, P. aerug. Ps296 VIM-2
[4] = test system: S. aureus MSSA-7 producing penicillinase PC-1; assay: Broth microdilution MIC assay, partner piperacillin; type: cell-based; settings: Staphylococcus aureus, fixed piperacillin 4 μg/mL, read-out: MIC of Exemplary Compounds in presence of fixed β-lactams, Fixed Pip, S. aureus MSSA-7 PC-1
VIM-2 = biological target: T1, VIM-2 (Escherichia coli, UniProt Q5U7L7); assay: β-Lactamase enzyme inhibition assay, VIM-2 (nitrocefin substrate); type: biochemical; settings: nitrocefin substrate 100 μM, 15 min preincubation at 37° C.; read-out: IC50, Class B VIM-2
T1 construct: made in house; host or cells: E. coli BL21(DE3)
Method: For Vim-2 metallo β-lactamase, the procedure was identical with the following exceptions, first the protein was not pH adjusted to pH 5 with 50 mM sodium acetate, second, the chromatography step was changed to a 5 ml Q sepharose anion exchange column pre-equilibrated with 50 mM Hepes pH 7.5, and elution of the protein was achieved by a linear gradient of NaCl (0-600 mM). Finally, the VIM-2 purification required a second run (3rd step) on the Q sepharose anion exchange column to achieve acceptable purity (>90%).
An equal volume of diluted enzyme stock was added, and the plates were incubated at 37° C. for 15 min. Nitrocefin was used as substrate for p99 AmpC, VIM-2 and OXA-1 and dispensed into each well at a final concentration of 100 μM. Absorbance at 486 nm was immediately monitored for 10 min using a Biotek Powerwave XS2 microplate spectrophotometer using the GEN5 softweare package (Biotek Instruments, Winooski Vt.). In an analogous fashion, imipenem was used as substrate for Kpc-2 and Cefotaxime was used for SHV-5, while changes in absorbance upon hydrolysis of the β-lactam ring were monitored at 300 nm and 260 nm respectively in UV-transparent 96-well microtiter assay plates. Maximum rates of hydrolysis were compared to those in control wells (without inhibitors), and percentages of enzyme inhibition were calculated for each concentration of inhibitor. The concentration of inhibitor needed to reduce the initial rate of hydrolysis of substrate by 50% (IC50) was calculated as the residual activity of β-lactamase at 486 nm using GraFit version 7 kinetics software package (Erithacus Software, Surrey, UK).
Using the methodology described above, examples of the current invention were evaluated for their ability to inhibit β-lactamase enzymes from all four Ambler classifications (A through D). […] NT=Not tested.

[5] = test system: K. pneumoniae A-1797 expressing KPC-2 and VIM-4; assay: Broth microdilution MIC assay, partner meropenem; type: cell-based; settings: Klebsiella pneumoniae, read-out: MIC of Exemplary Compounds in presence of fixed β-lactams, Fixed Mero, K.P. A-1797 KPC-2 VIM-4
[6] = test system: E. coli ESBL4 expressing CTX-M-15; assay: Broth microdilution MIC assay, partner ceftazidime;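 further: ceftazidime held fixed at 4 µg/mL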; type: cell-based; settings: Escherichia coli, read-out: MIC of Exemplary Compounds in presence of fixed β-lactams, Fixed CAZ, E. coli ESBL4 CTX-M-15

SMILES | MIC [1] [µg/mL] | MIC [2] [µg/mL] | MIC [3] [µg/mL] | MIC [4] [µg/mL] | IC50 (VIM-2) [nM] | MIC [5] [µg/mL] | MIC [6] [µg/mL]
O=C(O)c1cccc2c1OB(O)[C@@H](NC(=O)c1cccc3[nH]ccc13)C2 [Example 32, (R)-2-Hydroxy-3-[(1H-indole-4-carbonyl)-amino]-3,4-dihydro-2H-benzo[e][1,2]oxaborinine-8-carboxylic acid] | < 4 | < 4 | < 4 | < 4 | 100 to 1000 | > 32 | < 4
N=C(N)NCc1cc(CNC(=N)N)cc(C(=O)N[C@H]2Cc3cccc(C(=O)O)c3OB2O)c1 [Example 45, (R)-3-(3,5-bis(guanidinomethyl)benzamido)-2-hydroxy-3,4-dihydro-2H-benzo[e][1,2]oxaborinine-8-carboxylic acid] | < 4 | < 4 | < 4 | > 32 | < 100 | < 4 | < 4
NCCOc1ccc(C(=O)N[C@H]2Cc3cccc(C(=O)O)c3OB2O)cc1O [Example 40, (R)-3-(4-(2-aminoethoxy)-3-hydroxybenzamido)-2-hydroxy-3,4-dihydro-2H-benzo[e][1,2]oxaborinine-8-carboxylic acid] | < 4 | < 4 | < 4 | < 4 | < 100 | < 4 | < 4
O=C(N[C@H]1Cc2cccc(C(=O)O)c2OB1O)c1ccc2ncccc2c1 [Example 28, (R)-2-hydroxy-3-(quinoline-6-carboxamido)-3,4-dihydro-2H-benzo[e][1,2]oxaborinine-8-carboxylic acid] | < 4 | < 4 | > 32 | < 4 | 1000 to 10000 | 8 to 32 | < 4
N=C(N)N1Cc2ccc(CC(=O)N[C@H]3Cc4cccc(C(=O)O)c4OB3O)cc2C1 [Example 37, (3R)-3-[[2-(2-carbamimidoylisoindolin-5-yl)acetyl]amino]-2-hydroxy-3,4-dihydro-1,2-benzoxaborinine-8-carboxylic acid] | < 4 | < 4 | < 4 | < 4 | 100 to 1000 | > 32 | < 4
CN1Cc2ccc(CC(=O)N[C@H]3Cc4cccc(C(=O)O)c4OB3O)cc2C1 [Example 48, (R)-2-Hydroxy-3-[2-(2-methyl-2,3-dihydro-1H-isoindol-5-yl)-acetylamino]-3,4-dihydro-2H-benzo[e][1,2]oxaborinine-8-carboxylic acid] | < 4 | < 4 | < 4 | < 4 | < 100 | < 4 | < 4
O=C(O)c1cccc2c1OB(O)[C@@H](NC(=O)C(F)(F)c1ccccc1)C2 [Example 2, (R)-3-(2,2-difluoro-2-phenylacetamido)-2-hydroxy-3,4-dihydro-2H-benzo[e][1,2]oxaborinine-8-carboxylic acid] | < 4 | 8 to 32 | 8 to 32 | < 4 | 1000 to 10000 | > 32 | < 4
NCCNc1ccc(CC(=O)N[C@H]2Cc3cccc(C(=O)O)c3OB2O)c[n+]1[O-] [Example 61, (R)-2-(2-aminoethylamino)-5-(2-(8-carboxy-2-hydroxy-3,4-dihydro-2H-benzo[e][1,2]oxaborinin-3-ylamino)-2-oxoethyl)pyridine 1-oxide] | < 4 | < 4 | < 4 | < 4 | 100 to 1000 | < 4 | < 4
CNCc1ccc(C(=O)N[C@H]2Cc3cccc(C(=O)O)c3OB2O)cc1CNC [Example 19, (R)-3-(3,4-bis((methylamino)methyl)benzamido)-2-hydroxy-3,4-dihydro-2H-benzo[e][1,2]oxaborinine-8-carboxylic acid] | < 4 | < 4 | < 4 | < 4 | < 100 | < 4 | < 4
O=C(N[C@H]1Cc2cccc(C(=O)O)c2OB1O)c1ccc(-c2ccccn2)cc1 [Example 24, (R)-2-hydroxy-3-(4-(pyridin-2-yl)benzamido)-3,4-dihydro-2H-benzo[e][1,2]oxaborinine-8-carboxylic acid] | < 4 | 8 to 32 | 8 to 32 | < 4 | 100 to 1000 | 8 to 32 | < 4
O=C(N[C@H]1Cc2cccc(C(=O)O)c2OB1O)c1ccc2c(c1)CCNC2 [Example 5, (R)-3-(2-borono-2-(1,2,3,4-tetrahydroisoquinoline-6-carboxamido)ethyl)-2-hydroxybenzoic acid] | < 4 | < 4 | > 32 | < 4 | 100 to 1000 | < 4 | < 4
CN(C)Cc1ccc(C(=O)N[C@H]2Cc3cccc(C(=O)O)c3OB2O)cc1NC(=O)[C@@H](N)CN [Example 21, (R)-3-(3-((S)-2,3-diaminopropanamido)-4-((dimethylamino)methyl)benzamido)-2-hydroxy-3,4-dihydro-2H-benzo[e][1,2]oxaborinine-8-carboxylic acid] | < 4 | 8 to 32 | > 32 | 8 to 32 | < 100 | 8 to 32 | < 4
O=C(N[C@H]1Cc2cccc(C(=O)O)c2OB1O)c1ccc2c(c1)CNC2 [Example 9, (R)-2-hydroxy-3-(isoindoline-5-carboxamido)-3,4-dihydro-2H-benzo[e][1,2]oxaborinine-8-carboxylic acid] | < 4 | < 4 | < 4 | < 4 | < 100 | < 4 | < 4
NC1=Nc2cc(C(=O)N[C@H]3Cc4cccc(C(=O)O)c4OB3O)ccc2CN1 [Example 15, (R)-3-(2-amino-3,4-dihydroquinazoline-7-carboxamido)-2-hydroxy-3,4-dihydro-2H-benzo[e][1,2]oxaborinine-8-carboxylic acid] | < 4 | 8 to 32 | < 4 | < 4 | 1000 to 10000 | 8 to 32 | < 4
NCCOc1ccc(CC(=O)N[C@H]2Cc3cccc(C(=O)O)c3OB2O)cc1O [Example 59, (R)-3-(2-(4-(2-aminoethoxy)-3-hydroxyphenyl)acetamido)-2-hydroxy-3,4-dihydro-2H-benzo[e][1,2]oxaborinine-8-carboxylic acid] | < 4 | < 4 | < 4 | < 4 | 100 to 1000 | 8 to 32 | < 4
O=C(N[C@H]1Cc2cccc(C(=O)O)c2OB1O)c1ccc2[nH]ccc2c1 [Example 26, (R)-2-hydroxy-3-(1H-indole-5-carboxamido)-3,4-dihydro-2H-benzo[e][1,2]oxaborinine-8-carboxylic acid] | < 4 | < 4 | 8 to 32 | < 4 | 100 to 1000 | 8 to 32 | < 4
